Test results: patent US9840513B2 (AbbVie S.à.r.l., priority 2015, dated 2017)

Target: T1, F508delCFTR cell surface expression in CFBE41o-F508delCFTR-HRP cells (Homo sapiens, UniProt P13569, DEL508-508)
T1 construct: fused on or other part: Horseradish peroxidase (HRP) reporter inserted in the fourth exofacial (extracellular) loop of CFTR; expression is doxycycline-inducible
Experiment: Cell Surface Expression-Horse Radish Peroxidase (CSE-HRP) Assay
Assay type: cell-based
Conditions: for EC50: CFBE41o-F508delCFTR-HRP cells, 18-24 hours at 33° C., 8-point curve, highest concentration 20 μM; for Maximum % activity (%): maximum at any tested concentration, normalized to on-plate positive control (3 μM)
How it was run: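 CFBE41o- cells with HRP-tagged F508delCFTR, expression induced by 0.5 μg/mL doxycycline for 72 h at 37 °C, then compound for 18-24 h at 33 °C (8-point, 3-fold, top 20 μM). Surface HRP measured by luminol luminescence; % activity normalised to 3 μM positive-control corrector; EC50 from variable-slope sigmoidal fit, three replicate plates.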

T1 sequence (P13569 with tags, fused parts or gaps DEL508-508 limits assumed): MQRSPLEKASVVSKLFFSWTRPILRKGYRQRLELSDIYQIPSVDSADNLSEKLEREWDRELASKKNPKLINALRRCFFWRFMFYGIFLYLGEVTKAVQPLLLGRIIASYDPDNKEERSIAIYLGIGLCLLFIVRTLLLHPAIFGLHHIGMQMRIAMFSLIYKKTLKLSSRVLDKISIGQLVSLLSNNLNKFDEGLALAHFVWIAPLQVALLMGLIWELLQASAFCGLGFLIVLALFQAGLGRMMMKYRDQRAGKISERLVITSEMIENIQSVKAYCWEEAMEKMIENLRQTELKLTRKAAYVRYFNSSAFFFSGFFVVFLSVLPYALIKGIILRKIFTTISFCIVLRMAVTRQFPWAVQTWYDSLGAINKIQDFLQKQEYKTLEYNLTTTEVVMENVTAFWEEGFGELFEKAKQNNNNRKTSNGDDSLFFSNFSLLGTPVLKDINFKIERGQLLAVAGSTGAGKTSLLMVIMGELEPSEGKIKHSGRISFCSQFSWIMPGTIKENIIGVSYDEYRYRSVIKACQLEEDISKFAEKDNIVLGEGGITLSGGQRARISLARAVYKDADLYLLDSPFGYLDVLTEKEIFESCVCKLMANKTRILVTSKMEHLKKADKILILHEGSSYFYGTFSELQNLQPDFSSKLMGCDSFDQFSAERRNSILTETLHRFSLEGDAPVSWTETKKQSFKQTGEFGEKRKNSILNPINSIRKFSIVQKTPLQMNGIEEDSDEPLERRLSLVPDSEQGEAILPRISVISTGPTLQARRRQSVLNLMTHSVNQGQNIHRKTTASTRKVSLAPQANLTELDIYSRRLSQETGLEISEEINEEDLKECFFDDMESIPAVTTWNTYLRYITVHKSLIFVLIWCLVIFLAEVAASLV
T1 sequence (P13569 919-1480 limits assumed, stated change not applied): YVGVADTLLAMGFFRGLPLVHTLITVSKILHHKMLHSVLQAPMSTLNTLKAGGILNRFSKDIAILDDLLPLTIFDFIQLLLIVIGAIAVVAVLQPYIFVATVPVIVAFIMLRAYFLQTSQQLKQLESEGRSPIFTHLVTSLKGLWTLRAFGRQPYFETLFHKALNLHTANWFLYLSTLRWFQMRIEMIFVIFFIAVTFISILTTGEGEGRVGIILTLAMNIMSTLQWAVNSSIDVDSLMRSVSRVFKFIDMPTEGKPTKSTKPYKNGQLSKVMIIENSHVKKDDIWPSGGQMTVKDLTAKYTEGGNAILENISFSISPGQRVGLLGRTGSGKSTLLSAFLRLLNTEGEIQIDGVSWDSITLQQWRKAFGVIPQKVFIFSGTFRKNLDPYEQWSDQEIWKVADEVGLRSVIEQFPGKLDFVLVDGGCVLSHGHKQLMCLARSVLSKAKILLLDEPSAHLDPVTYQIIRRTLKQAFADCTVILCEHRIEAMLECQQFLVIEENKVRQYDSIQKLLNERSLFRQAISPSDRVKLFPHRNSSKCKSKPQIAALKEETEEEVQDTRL

**Q.** Which EC50 does the source give for CNC(=O)c1cccc(-c2nc(NC(=O)C3(C)COc4cc5c(cc43)OC(F)(F)O5)ccc2C)c1 (centres unmarked) [Example 76, 2,2-difluoro-7-methyl-N-{5-methyl-6-[3-(methylcarbamoyl)phenyl]pyridin-2-yl}-6,7-dihydro-2H-furo[2,3-f][1,3]benzodioxole-7-carboxamide] here?
**A.** Its EC50 is 0.72 µM.

**Q.** And the “Maximum % activity (%)” value?
**A.** The value was 111%.

**Q.** What does the source list for Cc1ccc(NC(=O)[C@@]2(C)COc3cc4c(cc32)OC(F)(F)O4)nc1Cl [Example 77, (7R)—N-(6-chloro-5-methylpyridin-2-yl)-2,2-difluoro-7-methyl-6,7-dihydro-2H-furo[2,3-f][1,3]benzodioxole-7-carboxamide]?
**A.** EC50: 6.63 µM; Maximum % activity (%): 116%

**Q.** With Cc1ccc(NC(=O)[C@@]2(C)COc3cc4c(cc32)OC(F)(F)O4)nc1-c1cccc(C#N)c1 [Example 78, (7R)—N-[6-(3-cyanophenyl)-5-methylpyridin-2-yl]-2,2-difluoro-7-methyl-6,7-dihydro-2H-furo[2,3-f][1,3]benzodioxole-7-carboxamide] as the compound, how does the EC50 read?
**A.** The EC50 was 0.57 µM.

**Q.** And the “Maximum % activity (%)” value?
**A.** Its value is 95%.

**Q.** Which results are given for COC(=O)c1ccc(-c2cccc(NC(=O)[C@@]3(C)COc4cc5c(cc43)OC(F)(F)O5)n2)cc1 [Example 79, methyl 4-(6-{[(7R)-2,2-difluoro-7-methyl-6,7-dihydro-2H-furo[2,3-f][1,3]benzodioxole-7-carbonyl]amino}pyridin-2-yl)benzoate]?
**A.** EC50: 1.18 µM; Maximum % activity (%): 151%

**Q.** C[C@]1(C(=O)Nc2ccc(N3CCCC3)cn2)COc2cc3c(cc21)OC(F)(F)O3 [Example 80, (7R)-2,2-difluoro-7-methyl-N-[5-(pyrrolidin-1-yl)pyridin-2-yl]-6,7-dihydro-2H-furo[2,3-f][1,3]benzodioxole-7-carboxamide] was tested. Which EC50 did it give?
**A.** The EC50 was 4.75 µM.

**Q.** And the “Maximum % activity (%)” value?
**A.** The value was 147%.

**Q.** Which EC50 does the source give for C[C@]1(C(=O)Nc2cccc(-c3ccc(C(=O)O)cc3)n2)COc2cc3c(cc21)OC(F)(F)O3 [Example 81, 4-(6-{[(7R)-2,2-difluoro-7-methyl-6,7-dihydro-2H-furo[2,3-f][1,3]benzodioxole-7-carbonyl]amino}pyridin-2-yl)benzoic acid] here?
**A.** The EC50 was 1.4 µM.

**Q.** And the “Maximum % activity (%)” value?
**A.** The value was 200%.

**Q.** With CCOC(=O)c1csc(-c2cccc(NC(=O)[C@@]3(C)COc4cc5c(cc43)OC(F)(F)O5)n2)c1 [Example 82, ethyl 5-(6-{[(7R)-2,2-difluoro-7-methyl-6,7-dihydro-2H-furo[2,3-f][1,3]benzodioxole-7-carbonyl]amino}pyridin-2-yl)thiophene-3-carboxylate] as the compound, how does the EC50 read?
**A.** The EC50 was 3.16 µM.

**Q.** What about the “Maximum % activity (%)” value of the same compound?
**A.** The value was 116%.

**Q.** How did the EC50 turn out when Cc1ccc(-c2cccc(C(=O)O)c2)nc1NC(=O)[C@@]1(C)COc2cc3c(cc21)OC(F)(F)O3 [Example 84, 3-(6-{[(7R)-2,2-difluoro-7-methyl-6,7-dihydro-2H-furo[2,3-f][1,3]benzodioxole-7-carbonyl]amino}-5-methylpyridin-2-yl)benzoic acid] was run?
**A.** The EC50 was 7.51 µM.

**Q.** What about the “Maximum % activity (%)” value of the same compound?
**A.** The value was 46%.

**Q.** C[C@]1(C(=O)Nc2cccc(F)n2)COc2cc3c(cc21)OC(F)(F)O3 [Example 85, (7R)-2,2-difluoro-N-(6-fluoropyridin-2-yl)-7-methyl-6,7-dihydro-2H-furo[2,3-f][1,3]benzodioxole-7-carboxamide] was tested. Which EC50 did it give?
**A.** The EC50 was 6.69 µM.

**Q.** And the “Maximum % activity (%)” value?
**A.** Its value is 90%.

**Q.** With C[C@]1(C(=O)Nc2cccc(-c3cc(C(=O)O)cs3)n2)COc2cc3c(cc21)OC(F)(F)O3 [Example 86, 5-(6-{[(7R)-2,2-difluoro-7-methyl-6,7-dihydro-2H-furo[2,3-f][1,3]benzodioxole-7-carbonyl]amino}pyridin-2-yl)thiophene-3-carboxylic acid] as the compound, how does the EC50 read?
**A.** The EC50 was 2.84 µM.

**Q.** What about the “Maximum % activity (%)” value of the same compound?
**A.** The value was 112%.

**Q.** Which results are given for C[C@]1(C(=O)Nc2cccc(N3CCOC(CO)C3)n2)COc2cc3c(cc21)OC(F)(F)O3 (stereo partly drawn) [Example 87, (7R)-2,2-difluoro-N-{6-[2-(hydroxymethyl)morpholin-4-yl]pyridin-2-yl}-7-methyl-6,7-dihydro-2H-furo[2,3-f][1,3]benzodioxole-7-carboxamide]?
**A.** EC50: 1.86 µM; Maximum % activity (%): 100%

**Q.** For C[C@]1(C(=O)Nc2cccc(N3CC[C@H](O)C3)n2)COc2cc3c(cc21)OC(F)(F)O3 [Example 88, (7R)-2,2-difluoro-N-{6-[(3S)-3-hydroxypyrrolidin-1-yl]pyridin-2-yl}-7-methyl-6,7-dihydro-2H-furo[2,3-f][1,3]benzodioxole-7-carboxamide], which EC50 is on record?
**A.** Its EC50 is 0.73 µM.

**Q.** And the “Maximum % activity (%)” value?
**A.** The value was 113%.

**Q.** What does the source list for COC(=O)c1ccc([C@H]2C[C@@H](NC(=O)[C@@]3(C)COc4cc5c(cc43)OC(F)(F)O5)c3ccc(OC)cc3O2)nc1 [Example 89E, methyl 6-[(2R,4R)-4-{[(7R)-2,2-difluoro-7-methyl-6,7-dihydro-2H-furo[2,3-f][1,3]benzodioxole-7-carbonyl]amino}-7-methoxy-3,4-dihydro-2H-1-benzopyran-2-yl]pyridine-3-carboxylate]?
**A.** EC50: 0.018 µM; Maximum % activity (%): 116%

**Q.** Which results are given for C[C@]1(C(=O)Nc2cccc(N3CC[C@@H](O)C3)n2)COc2cc3c(cc21)OC(F)(F)O3 [Example 91, (7R)-2,2-difluoro-N-{6-[(3R)-3-hydroxypyrrolidin-1-yl]pyridin-2-yl}-7-methyl-6,7-dihydro-2H-furo[2,3-f][1,3]benzodioxole-7-carboxamide]?
**A.** EC50: 0.21 µM; Maximum % activity (%): 116%

**Q.** Which EC50 does the source give for C[C@]1(C(=O)Nc2cccc(NC[C@H](O)CO)n2)COc2cc3c(cc21)OC(F)(F)O3 [Example 93, (7R)—N-(6-{[(2S)-2,3-dihydroxypropyl]amino}pyridin-2-yl)-2,2-difluoro-7-methyl-6,7-dihydro-2H-furo[2,3-f][1,3]benzodioxole-7-carboxamide] here?
**A.** The EC50 was 1.53 µM.

**Q.** And the “Maximum % activity (%)” value?
**A.** Its value is 89%.

**Q.** For C[C@]1(C(=O)Nc2cnc(N3CCC(C(=O)O)C3)cn2)COc2cc3c(cc21)OC(F)(F)O3 (stereo partly drawn) [Example 94, 1-(5-{[(7R)-2,2-difluoro-7-methyl-6,7-dihydro-2H-furo[2,3-f][1,3]benzodioxole-7-carbonyl]amino}pyrazin-2-yl)pyrrolidine-3-carboxylic acid], which EC50 is on record?
**A.** Its EC50 is > 20 µM.

**Q.** What about the “Maximum % activity (%)” value of the same compound?
**A.** The value was 8%.

**Q.** How did the EC50 turn out when CC1(C(=O)O)CN(c2cccc(NC(=O)[C@@]3(C)COc4cc5c(cc43)OC(F)(F)O5)n2)C1 [Example 96, 1-(6-{[(7R)-2,2-difluoro-7-methyl-6,7-dihydro-2H-furo[2,3-f][1,3]benzodioxole-7-carbonyl]amino}pyridin-2-yl)-3-methylazetidine-3-carboxylic acid] was run?
**A.** The EC50 was 1.31 µM.

**Q.** What about the “Maximum % activity (%)” value of the same compound?
**A.** Its value is 139%.

**Q.** With C[C@]1(C(=O)Nc2cc(Br)cn(-c3ccc(C(=O)O)cc3)c2=O)COc2cc3c(cc21)OC(F)(F)O3 [Example 97, 4-[5-bromo-3-{[(7R)-2,2-difluoro-7-methyl-6,7-dihydro-2H-furo[2,3-f][1,3]benzodioxole-7-carbonyl]amino}-2-oxopyridin-1(2H)-yl]benzoic acid] as the compound, how does the EC50 read?
**A.** Its EC50 is 0.48 µM.

**Q.** And the “Maximum % activity (%)” value?
**A.** The value was 148%.

**Q.** Which results are given for C[C@]1(C(=O)Nc2cc(Br)cn(C[C@@H](O)CO)c2=O)COc2cc3c(cc21)OC(F)(F)O3 [Example 98, (7R)—N-{5-bromo-1-[(2R)-2,3-dihydroxypropyl]-2-oxo-1,2-dihydropyridin-3-yl}-2,2-difluoro-7-methyl-6,7-dihydro-2H-furo[2,3-f][1,3]benzodioxole-7-carboxamide]?
**A.** EC50: 1.14 µM; Maximum % activity (%): 143%

**Q.** How did the EC50 turn out when C[C@]1(C(=O)Nc2cc(-c3ccccc3)cn(-c3ccc(C(=O)O)cc3)c2=O)COc2cc3c(cc21)OC(F)(F)O3 [Example 99, 4-[3-{[(7R)-2,2-difluoro-7-methyl-6,7-dihydro-2H-furo[2,3-f][1,3]benzodioxole-7-carbonyl]amino}-2-oxo-5-phenylpyridin-1(2H)-yl]benzoic acid] was run?
**A.** Its EC50 is 0.23 µM.

**Q.** And the “Maximum % activity (%)” value?
**A.** The value was 71%.

**Q.** C[C@]1(C(=O)Nc2cc(-c3ccccc3)cn(C[C@@H](O)CO)c2=O)COc2cc3c(cc21)OC(F)(F)O3 [Example 100, (7R)—N-{1-[(2R)-2,3-dihydroxypropyl]-2-oxo-5-phenyl-1,2-dihydropyridin-3-yl}-2,2-difluoro-7-methyl-6,7-dihydro-2H-furo[2,3-f][1,3]benzodioxole-7-carboxamide] was tested. Which EC50 did it give?
**A.** Its EC50 is 0.45 µM.

**Q.** And the “Maximum % activity (%)” value?
**A.** The value was 85%.

**Q.** How did the EC50 turn out when CC1(C)CCN(c2cccc(NC(=O)[C@@]3(C)COc4cc5c(cc43)OC(F)(F)O5)n2)C1 [Example 101, (7R)—N-[6-(3,3-dimethylpyrrolidin-1-yl)pyridin-2-yl]-2,2-difluoro-7-methyl-6,7-dihydro-2H-furo[2,3-f][1,3]benzodioxole-7-carboxamide] was run?
**A.** The EC50 was 0.87 µM.

**Q.** And the “Maximum % activity (%)” value?
**A.** The value was 116%.

**Q.** What does the source list for C[C@]1(C(=O)Nc2cnc(N3CCC[C@H]3C(=O)O)cn2)COc2cc3c(cc21)OC(F)(F)O3 [Example 102, 1-(5-{[(7R)-2,2-difluoro-7-methyl-6,7-dihydro-2H-furo[2,3-f][1,3]benzodioxole-7-carbonyl]amino}pyrazin-2-yl)proline]?
**A.** EC50: 8.29 µM; Maximum % activity (%): 61%

**Q.** Which EC50 does the source give for Cc1cc(NC(=O)[C@@]2(C)COc3cc4c(cc32)OC(F)(F)O4)nc(-c2cccc(C(=O)O)c2)c1 [Example 103, 3-(6-{[(7R)-2,2-difluoro-7-methyl-6,7-dihydro-2H-furo[2,3-f][1,3]benzodioxole-7-carbonyl]amino}-4-methylpyridin-2-yl)benzoic acid] here?
**A.** The EC50 was 1.72 µM.

**Q.** And the “Maximum % activity (%)” value?
**A.** The value was 170%.

**Q.** Which results are given for CC1(C)OC[C@H]([C@@H](O)Cn2nc(-c3ccccc3)cc(NC(=O)[C@@]3(C)COc4cc5c(cc43)OC(F)(F)O5)c2=O)O1 [Example 104, (7R)—N-(2-{(2S)-2-[(4R)-2,2-dimethyl-1,3-dioxolan-4-yl]-2-hydroxyethyl}-3-oxo-6-phenyl-2,3-dihydropyridazin-4-yl)-2,2-difluoro-7-methyl-6,7-dihydro-2H-furo[2,3-f][1,3]benzodioxole-7-carboxamide]?
**A.** EC50: > 20 µM; Maximum % activity (%): 16%
